Columns and labels:
synaptosomes = assay: Glutamate release from synaptosomes (4-AP stimulated); format: cell-based, rat; settings: 20 μM, 30 min pretreatment, 3 mM 4-AP
Protocol: Release of glutamate from synaptosomes was performed as described previously 60, with minor changes. The assay was carried out at 37°C in a Perkin Elmer LS50 fluorimeter. Control (1% DMSO) and 4a‐treated samples were incubated in the presence of the compound for 30 min prior to stimulation of glutamate release. For each sample, 1 mg of crude P2 synaptosomes was diluted in 2 mL of HEPES‐buffered Krebs‐like buffer, either containing 1 mM EGTA (zero Ca^2+) or 1 mM EGTA plus 3 mM […] (2 mM free Ca^2+). NAPD^+ (3 mM) and glutamic acid dehydrogenase (50 U) were added and allowed to incubate for 15 min to allow residual glutamate in the sample to be metabolized. 4‐AP (3 mM) was subsequently added to stimulate glutamate release, which was recorded over a 5‐min period. Readings of fluorescence were taken every 2 seconds. All treatment conditions were carried out in zero Ca^2+ and 2 mM Ca^2+ conditions with the zero Ca^2+ measurement subtracted from the 2 mM measurement for each time point. […] Each treatment was carried out in duplicate within a single experiment and each independent experiment was carried out three times on separate days using synaptosomes prepared from fresh rat brain tissue ([…]).

[1] = target: microtubule-stimulated dynamin I (Ovis aries, UniProt A0ACI6PDC7); assay: Microtubule-stimulated (helical) dynamin I GTPase assay; format: biochemical, sheep; settings: presence of Tween-80
Chain of microtubule-stimulated dynamin I (A0ACI6PDC7 entry or part of it): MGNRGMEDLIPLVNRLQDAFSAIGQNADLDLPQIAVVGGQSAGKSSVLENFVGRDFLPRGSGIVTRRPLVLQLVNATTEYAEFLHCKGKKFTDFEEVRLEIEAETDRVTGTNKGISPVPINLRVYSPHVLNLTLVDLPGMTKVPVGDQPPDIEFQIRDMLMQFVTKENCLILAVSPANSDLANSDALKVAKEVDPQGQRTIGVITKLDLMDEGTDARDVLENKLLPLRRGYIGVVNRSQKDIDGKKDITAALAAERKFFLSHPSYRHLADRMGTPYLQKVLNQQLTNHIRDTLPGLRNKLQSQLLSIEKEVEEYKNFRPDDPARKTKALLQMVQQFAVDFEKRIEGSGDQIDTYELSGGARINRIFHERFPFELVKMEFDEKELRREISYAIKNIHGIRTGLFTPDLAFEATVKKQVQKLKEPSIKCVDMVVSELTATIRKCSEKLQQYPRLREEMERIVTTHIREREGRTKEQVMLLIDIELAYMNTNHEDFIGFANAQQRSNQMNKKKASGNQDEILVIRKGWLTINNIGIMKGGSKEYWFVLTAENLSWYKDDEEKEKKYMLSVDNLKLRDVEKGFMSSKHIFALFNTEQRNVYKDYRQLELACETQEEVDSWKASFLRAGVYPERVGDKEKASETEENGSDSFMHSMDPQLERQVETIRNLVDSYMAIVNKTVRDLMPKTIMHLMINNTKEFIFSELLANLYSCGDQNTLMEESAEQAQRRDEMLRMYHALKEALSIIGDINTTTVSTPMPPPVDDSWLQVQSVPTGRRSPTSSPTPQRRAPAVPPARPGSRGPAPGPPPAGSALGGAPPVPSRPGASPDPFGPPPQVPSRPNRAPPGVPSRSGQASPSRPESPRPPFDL
Protocol: The Malachite Green colorimetric GTPase assay was as described 10. Dynamin I activity was measured in its SAI activity state or was stimulated by three different methods. As each stimulus activates dynamin to different extents, each assay required different dynamin concentrations. First, maximal dynamin activity was stimulated by sonicated PS liposomes 10. Purified dynamin I (10–20 nM, diluted in: 6 mM Tris–HCl, 20 mM NaCl and 0.01% Tween 80, pH 7.4) was incubated in 96‐well plates in GTPase buffer (5 mM Tris–HCl, 10 mM NaCl, 2 mM Mg^2+, 0.05% Tween 80, pH 7.4, 1 µg/mL leupeptin and 0.1 mM PMSF) and GTP 0.3 mM in the presence of test compound for 30 min at 37°C in a final assay volume of 150 μL. Reactions were terminated with 10 μL of 0.5 M ethylenediaminetetraacetic acid (EDTA) pH 7.4 and Malachite Green solution (40 μL: 2% w/v ammonium molybdate tetrahydrate, 0.15% w/v malachite green and 4 M HCl) was added for 5 min. Second, dynamin (20 nM) was stimulated by 10 µg/mL of taxol‐stabilized preformed bovine brain microtubules (Cytoskeleton, Inc) using the same protocol. […] Finally, dynamin (500 nM) SAI activity was measured using high concentrations of dynamin, which promote its cooperative self‐assembly into rings (but not helices) 26. […] After the Vmax and Km values were determined, the data were transformed using the Lineweaver–Burke equation, 1/v = 1/Vmax + (Km/Vmax)(1/[S]).

grb2-stimulated dynamin = tested on: grb2-stimulated dynamin; design: method as in PMID 16740485; settings: no detergent, read-out: previously estimated IC50 for dynasore; cited from earlier work

For `O=C(N/N=C/c1cc(O)c(O)cc1O)c1cc2ccccc2cc1O` [4a, (E)-3-Hydroxy-N'-(2,4,5-trihydroxybenzylidene) -2-naphthohydrazide], the “Ca2+-dependent glutamate release” value (synaptosomes) was “decrease in the release of glutamate only after 45 seconds”.

For `O=C(N/N=C/c1ccc(O)c(O)c1)c1cc2ccccc2cc1O` [Dynasore, (E)-N'-(3,4-Dihydroxybenzylidene)-3-hydroxy-2-naphthohydrazide], the “block of microtubule-stimulated dynamin activity” value [1] is given as “did not block” and the IC50 (grb2-stimulated dynamin) is given as ~15 µM.
